# Assay results reported in patent US5376658A, “5,10-methylene-tetrahydrofolate as a modulator of a chemotherapeutic agent” (priority 1993, dated 1994).
# Experiments:
# CCRF-CEM cells = test: Intracellular CH2 FH4 and FH4 levels in CCRF-CEM cells after exposure to 10 μM folate; format: cell-based, human; conditions: for Intracellular FH4: control 3.08
# From the text: In further support of the hypothesis that objectives of CH2 FH4 administration are increases in FH4 and FH4 /CH2 FH4 values, are the results of a cell culture study, shown in Table VI, comparing the relative effectiveness of different folate forms on assayed intracellular levels of the two folates.
# [1] = tested on: CH2 FH4 and FH4 in breast cancer biopsies; test: CH2 FH4 and FH4 levels in breast cancer biopsies during L-serine infusion after high-dose (6R,S)-leucovorin; format: in vivo, human; design: CH2 FH4 / FH4: unit not given here; conditions: patient two
# Description: As noted previously (see pages 5-6) and mentioned in C. P. Spears, et al., Proc. Am. Soc. Clin. Oncol. 8:69 (1989), the inventors have used pharmacologic intervention to convert intracellular FH4 to CH2 FH4 in patients receiving high-dose reduced folate therapy combined with weekly i.v. bolus 5-FU, 450 mg/sq. m. The method used was administration of i.v. L-serine, 15.0 grams, over 1 hour after the end of overnight high-dose (6R,S)-leucovorin i.v. infusion.
# In contrast to the data shown in Tables II and III, the inventors were able to also assay for intratumoral FH4 in addition to CH2 FH4 (this latter is also referred to as "FBC" in those Tables or Folate-Binding Capacity), at time points during this pharmacologic forcing of metabolism of FH4 to CH2 FH4 through the enzyme, serine hydroxymethyltransferase. This enzyme splits a carbon of L-serine to generate formaldehyde in the presence of FH4.
# ^a Minutes after initiation of 15.0 gram LSerine i.v. 60min infusion,
# after end of overnight (6R,S)leucovorin highdose i.v. infusion.
# ^b Assays performed as described (C.P. Spears et al., Adv. Exp. Med.
# [2] = tested on: thymidylate synthase (TS); test: TS level in serial tumor biopsies, patient three (skin metastasis from gastric carcinoma), [6-3H]FdUMP ligand-binding assay; format: in vivo, human; conditions: for TS, % of Baseline / Thymidylate synthase (TS): 30 mg IV; for Thymidylate synthase (TS): baseline 1.31
# Description: The assays were performed by the methods described in Spears et al., Adv. […] The serial biopsies were done following single dose administration of CH2 FH4.
# The assays were also performed on the day of CH2 FH4 administration.
# [3] = tested on: thymidylate synthase (TS); test: TS level in serial tumor biopsies, patient one (rectal adenocarcinoma), [6-3H]FdUMP ligand-binding assay; format: in vivo, human
# Description: CH2 FH4 was formulated, assayed, and administered to 2 patients who had previously been treated with 5-FU. The assays were performed by the methods described in Spears et al., Adv. Exp. Med. Biol. 244:98-104 (1988). In the data shown, the TS inhibition profiles that resulted from CH2 FH4 administration were not due to concurrent 5-FU dosing. The most recent exposure to 5-FU in these cases was slightly greater than a week prior to the study date, with the patients eligible, however, from the standpoint of toxicity evaluation to receive the weekly dose of 5-FU. Thus, residual FdUMP levels from previous exposure, below the detectable limits for assay, were expected to be present (See spears et al. Mol. Pharmacol. 27:302-07 (1985)). The serial biopsies were done following single dose administration of CH2 FH4.
# The formulation of CH2 FH4 was as described in Example 2, and was performed on the day of CH2 FH4 administration. The assays were also performed on the day of CH2 FH4 administration.
# ^a On Week #1 the CH2 FH4 was formulated at pH 2.0,
# DEAEpurified; On Week #2 the preparation was pH 9.0, with 6 mM (final
# concentration) CH2 O added, no DEAE step used.
# ^c By [6^3 H]FdUMP ligandbinding assay (Spears et al., Cancer Res
# In patient one, a person with locally unresectable advanced rectal adenocarcinoma, the TS pharmacodynamic tumor tissue analyses were done twice, nine days apart. Following study, the person continued to receive intermittent bolus 5-FU. […] There were modifications of the CH2 FH4 formulation between the 2 pharmacodynamic studies (See Table III). In the first study week, the pH was not adjusted up from 2.0, after DEAE column isolation of the Sigma (6R,S)-CH2 FH4. Thus, some of this folate may also have been 5,10-methenyl-tetrahydrofolate. In the second study week, the pH was adjusted up to 9.0, and no DEAE step was used (with therefore 6 mM formaldehyde being present in the 40-cc volume for injection).
# L. casei TS-[3H]FdUMP = biological target: T1, L. casei TS-[3H]FdUMP (Lacticaseibacillus casei, UniProt P00469); test: TS-[3H]FdUMP-folate ternary complex binding assay
# T1 sequence (P00469 1-316): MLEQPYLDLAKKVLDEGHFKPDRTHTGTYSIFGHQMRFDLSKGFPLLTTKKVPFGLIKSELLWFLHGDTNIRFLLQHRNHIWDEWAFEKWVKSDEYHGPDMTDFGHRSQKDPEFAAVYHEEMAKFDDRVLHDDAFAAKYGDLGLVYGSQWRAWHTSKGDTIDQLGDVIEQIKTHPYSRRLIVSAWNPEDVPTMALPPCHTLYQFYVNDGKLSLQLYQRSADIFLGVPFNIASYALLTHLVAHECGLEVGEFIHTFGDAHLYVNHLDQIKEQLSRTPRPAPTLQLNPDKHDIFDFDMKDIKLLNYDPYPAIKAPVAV
# Description: The CH2 FH4 was prepared as the racemic (6R, S) material from (6R, S)-FH4 and excess formaldehyde, and DEAE-column isolation as described in FIG. 1. This preparation was essentially free of free formaldehyde based on colorimetric assay of bulk material (Nash, Biochem. J. 55:416-21 (1953)).
# At all concentrations (total assays volume 150 μl ), excess formaldeyde was required to obtain maximal binding (which was still only 19.3% of stoichiometric binding). A notable effect was the increasing need for formaldehyde addition with increasing dilution, to obtain maximal CH2 FH4 assay recovery.
# TS[^3 H]FdUMP-folate ternary complex formation without formaldehyde
# addition was 38.5% of the value for the natural (6R)CH2 FH4 wit
# 6 mM formaldehyde added. (About 1 pmole of parent CH2 FH4 was
# ^b Only 11.8 ± 7.9% of maximal L. casei TS[^3 H]FdUMP-folate
# ternary complex formation (using 6 mM formaldehyde concentration) which i
# The unnatural diastereomer, (6S)-CH2 FH4 prepared by DEAE-column,potassium bicarbonate separation from the natural diasteromer as described in Example 8, was dissolved in 0.2M Tris-HCl buffer, pH 7.0, containing sodium ascorbate (100 mM) and 2-mercaptoethanol. This preparation was from the same lot of material described in Example 8. As noted in the footnote of Table VII, in the absence of supplemental formaldehyde, the yield of dextrancharcoal isolated complex was 38.5% of the value for the natural (6R)-CH2 FH4 (with added 6 mM formaldehyde).
# [4] = cited from earlier work
# [5] = tested on: transplanted colon cancer; test: Comparison of natural and unnatural CH2 FH4 diastereomers in rats bearing transplanted colon cancer; format: in vivo, rat; conditions: 15 mg/kg, Day 17, no fluorinated pyrimidine
# From the text: A study has been completed, for comparison of natural (6R)-CH2 FH4 and unnatural (6S)-CH2 FH4 diastereomers. The preparation of the two forms was done as described by Kisliuk, et al., Cancer Treat. Rep. 61:647-50 (1977), using DEAE-cellulose column chromatography, with elution by potassium bicarbonate buffer. The two separate major peaks were individually pooled, lyophilized to dryness, and used for injection. As in the original detailed description of the method of Kisliuk, et al. (Biochem. 20:929-934), the methylene content was substoichiometric with tetrahydrofolate (FH4). That is, methylene units were present in apparently lower concentration than FH4 concentrations.
# Rats bearing the transplanted colon cancer, as described in Example 4 and in Carlsson, et al., Anticancer. Res. 10:813-816, 1991, were treated with either the (6R)-CH2 FH4 or the (6S)-CH2 FH4, formulated and injected according to the methods described in Table IV, except that the injected amounts were 15 mg/kg per dose.
# At Day 17, the rats were sacrificed, and the tumors were measured for both volume end weight. Volumes were calculated by the equation for an ellipsoid in revolution, V=(4/3)πab^2 were a=the long diameter/2 and b=the perpendicular short diameter/2.
# The filled circles are the weights and volumes of tumors of rats treated with the unnatural (6S)-CH2 FH4 diastereomer (mostly (6R)-FH4 material in dilute solution and blood); the triangles are results for the natural (6R)-CH2 FH4 (mostly (6S)-FH4); and the open circles, control non-treated tumors. It is emphasized here that no fluorinated pyrimidine was used, just the folate injections.
# [6] = 0 min (start of L-serine, after overnight leucovorin)
structure (smiles),measurement,setting,value
"CN1c2c(nc(N)[nH]c2=O)NC[C@H]1CNc1ccc(C(=O)N[C@@H](CCC(=O)O)C(=O)O)cc1 [(6R,S)-MTHF, 5-methyl-(6R, S)-tetrahydrofolate]",Intracellular FH4,CCRF-CEM cells; 16-hr exposure,10.55 nmole/10^9 Cells
"Nc1nc2c(c(=O)[nH]1)N(C=O)[C@H](CNc1ccc(C(=O)N[C@@H](CCC(=O)O)C(=O)O)cc1)CN2 [LV, (6R,S)-5-formyl-tetrahydrofolate]",Ratio of FH4/CH2 FH4,[1]; 0 min,12.2
same,CH2 FH4,[1]; [6],0.194
same,FH4,[1]; [6],2.370
"Nc1nc2c(c(=O)[nH]1)N1CN(c3ccc(C(=O)N[C@@H](CCC(=O)O)C(=O)O)cc3)CC1CN2 (stereo partly shown) [CH2 FH4, 5,10-methylene-tetrahydrofolate]","TS, % of Baseline",[2]; 10 min,19.8%
same,"TS, % of Baseline",[2]; 20 min,42.7%
same,"TS, % of Baseline",[2]; 40 min,75.6%
same,"TS, % of Baseline",[2]; 60 min,112.2%
same,Thymidylate synthase (TS),[2]; biopsy at 10 min,0.26 pmol/g
same,Thymidylate synthase (TS),[2]; biopsy at 20 min,0.56 pmol/g
same,Thymidylate synthase (TS),[2]; biopsy at 40 min,0.99 pmol/g
same,Thymidylate synthase (TS),[2]; biopsy at 60 min,1.47 pmol/g
same,TS inhibition / decrease over baseline value,[2]; 10 min (first biopsy),80.2%
same,TS inhibition,[2]; 20 min,57.3%
same,"TS, % of Baseline","[3]; Week #1, 35 mg IV, 10 min",212.4%
same,Thymidylate synthase (TS),"[3]; Week #1, 35 mg IV, 10 min, baseline 5.77",6.28 pmol/g
same,"TS, % of Baseline","[3]; Week #1, 35 mg IV, 20 min",43.7%
same,Thymidylate synthase (TS),"[3]; Week #1, 35 mg IV, 20 min, baseline 5.77",2.26 pmol/g
same,"TS, % of Baseline","[3]; Week #1, 35 mg IV, 30 min",114.1%
same,Thymidylate synthase (TS),"[3]; Week #1, 35 mg IV, 30 min, baseline 5.77",5.90 pmol/g
same,"TS, % of Baseline","[3]; Week #1, 35 mg IV, 24 hr",122.2%
same,Thymidylate synthase (TS),"[3]; Week #1, 35 mg IV, 24 hr, baseline 5.77",6.32 pmol/g
same,"TS, % of Baseline","[3]; Week #2, 50 mg IV, 10 min",181.7%
same,Thymidylate synthase (TS),"[3]; Week #2, 50 mg IV, 10 min, baseline 5.64",10.25 pmol/g
same,"TS, % of Baseline","[3]; Week #2, 50 mg IV, 20 min",104.8%
same,Thymidylate synthase (TS),"[3]; Week #2, 50 mg IV, 20 min, baseline 5.64",5.91 pmol/g
same,"TS, % of Baseline","[3]; Week #2, 50 mg IV, 30 min",35.8%
same,Thymidylate synthase (TS),"[3]; Week #2, 50 mg IV, 30 min, baseline 5.64",2.02 pmol/g
same,"TS, % of Baseline","[3]; Week #2, 50 mg IV, 40 min",61.3%
same,Thymidylate synthase (TS),"[3]; Week #2, 50 mg IV, 40 min, baseline 5.64",3.46 pmol/g
same,"maximal binding, % of stoichiometric binding","L. casei TS-[3H]FdUMP; 0.2M Tris pH 7.4, excess formaldehyde (6 mM)",19.3%
same,storage stability in solution,"[4]; column-isolated, under argon at -80° C.",up to a year without decomposition
same,stability in the presence of oxygen,"[4]; solutions and powder, oxygen, catalyzed by light, acid, base, heavy metals",unstable
Nc1nc2c(c(=O)[nH]1)N1CN(c3ccc(C(=O)N[C@@H](CCC(=O)O)C(=O)O)cc3)C[C@H]1CN2 [(6R)-CH2 FH4],% of maximal L. casei TS-[3H]FdUMP-folate ternary complex formation,L. casei TS-[3H]FdUMP; maximal = using 6 mM formaldehyde,11.8 ± 7.9%
same,Intracellular CH2 FH4,"CCRF-CEM cells; 90 min exposure, control 0.04",0.19 nmole/10^9 Cells
same,Intracellular FH4,CCRF-CEM cells; 90 min exposure,8.81 nmole/10^9 Cells
same,Tumor volume ± SE,[5]; control 7.81,12.58
same,Tumor weight ± SE,[5]; control 7.93,9.11
"Nc1nc2c(c(=O)[nH]1)N=C(CNc1ccc(C(=O)N[C@@H](CCC(=O)O)C(=O)O)cc1)CN2 [DHF, Dihydrofolate]",Intracellular FH4,CCRF-CEM cells; 16-hr exposure,7.10 nmole/10^9 Cells
Nc1nc2c(c(=O)[nH]1)N(C=O)[C@@H](CNc1ccc(C(=O)N[C@@H](CCC(=O)O)C(=O)O)cc1)CN2 [(6S)-LV],Intracellular FH4,CCRF-CEM cells; 16-hr exposure,10.64 nmole/10^9 Cells
